For one test, the target named is Melatonin receptor (Gallus gallus, UniProt P49288+P51050+P49285). Put plainly: Binding affinity towards melatonin receptor was determined using 2-[125I]iodomelatonin as radioligand in chick brain membranes. It is filed as cell membranes, Membrane.
The species named for test [1] is Xenopus laevis. Put plainly: Agonistic activity was determined in a pigment aggregation model using cultured melanophores isolated from the neural crest of Xenopus laevis embryos; mixed. The conditions noted are these: frog; filed as partial agonist. It is filed as functional.
The species named for test [2] is Xenopus laevis. Put plainly: Agonistic activity was determined in a pigment aggregation model using cultured melanophores isolated from the neural crest of Xenopus laevis embryos. It is filed as functional. The conditions noted are these: frog; filed as agonist.
Test [3] is filed under the species Xenopus laevis. Kind of test: Agonistic activity was determined in a pigment aggregation model using cultured melanophores isolated from the neural crest of Xenopus laevis embryos. It is filed as functional, frog.
Test [4] is filed under the species Xenopus laevis. Put plainly: Agonistic activity was determined in a pigment aggregation model using cultured melanophores isolated from the neural crest of Xenopus laevis embryos; partial agonist. Conditions: frog; filed as partial agonist. It is filed as functional.
The species named for test [5] is Xenopus laevis. Put plainly: Agonistic activity was determined in a pigment aggregation model using cultured melanophores isolated from the neural crest of Xenopus laevis embryos; inactive. It is filed as functional. The conditions noted are these: frog.

The source made the active and inactive calls. The calls are words filed in the database; no cut-off is given here. Bounds are passed on as bounds.

With `COc1ccc2[nH]c3c(c2c1)CC(NC(=O)CBr)CC3` (stereo not given), the Ki at Melatonin receptor turned out to be 8.3 nM. For the same compound, the Activity result in the test filed under Xenopus laevis [1] is “Partial agonist”.
For the compound `CCC(=O)NC1CCCc2c1c1cc(OC)ccc1n2C` (stereo not given), the Ki on Melatonin receptor worked out at 1.44 nM. The Activity result in the test listed under Xenopus laevis [2] is “Agonist”.
`CC(=O)NC1CCCc2c1c1ccccc1n2C` (stereo not given): the Ki on Melatonin receptor turned out to be 227 nM. For the same compound, the Activity result in the test listed under Xenopus laevis [2] was “Agonist”.
For `COc1ccc2[nH]c3c(c2c1)CC(NC(=O)C1CC1)CC3` (stereo not given), the Ki on Melatonin receptor came out at 570 nM. Moreover, the Activity entry in the test filed under Xenopus laevis [2] is “Agonist”.
Compound `COc1ccc2[nH]c3c(c2c1)CC(NC(=O)C(F)(F)F)CC3` (stereo not given) had a Ki at Melatonin receptor of 102 nM. That is a sub-micromolar value.
As for `CCCC(=O)NC1CCCc2c1c1cc(OC)ccc1n2C` (stereo not given), at Melatonin receptor, the inhibitory constant (Ki) is on record as 0.378 nM. The Activity result in the test filed under Xenopus laevis [2] is “Agonist”. For the same compound, in the test filed under Xenopus laevis [3], the midpoint of the response, the EC50, lay at 2.5 nM.
Regarding `CCC(=O)NC1CCCc2c1c1ccccc1n2C` (stereo not given), the Ki on Melatonin receptor stood at 204 nM. Besides, the Activity entry in the test filed under Xenopus laevis [2] is “Agonist”.
Compound `O=C(CBr)NC1CCc2[nH]c3ccccc3c2C1` (stereo not given) gave a Ki on Melatonin receptor of 740 nM. The Activity entry in the test filed under Xenopus laevis [4] was “Partial agonist”. Also, the EC50 in the test listed under Xenopus laevis [3] is less than 1000 nM.
On Melatonin receptor, `CCC(Br)C(=O)NC1CCc2[nH]c3ccccc3c2C1` (stereo not given) had a Ki of more than 10000 nM.
For the compound `CCCC(=O)NC1CCc2[nH]c3ccccc3c2C1` (stereo not given), the Ki at Melatonin receptor is 1060 nM. In the test filed under Xenopus laevis [5], the result was inactive.
As to `COc1ccc2c(c1)c1c(n2C)CCCC1NC(=O)C1CCC1` (stereo not given), at Melatonin receptor, the Ki came out at 271 nM. Besides, the Activity entry in the test listed under Xenopus laevis [2] was “Agonist”.
On the same counts, the results for `CCCCC(=O)NC1CCCc2c1c1cc(OC)ccc1n2C` (stereo not given) are 82 nM and “Agonist”.
In the same order, the values of `Cn1c2c(c3ccccc31)C(NC(=O)C1CC1)CCC2` (stereo not given) are 4460 nM and “Agonist”.
Consider `COc1ccc2c(c1)c1c(n2C)CCCC1NC(C)=O` (stereo not given), for which the Ki at Melatonin receptor was found to be 0.97 nM. The Activity entry in the test filed under Xenopus laevis [2] was “Agonist”.
At Melatonin receptor, `COc1ccc2c(c1)c1c(n2C)CCCC1NC(=O)C(F)(F)F` (stereo not given) registered a Ki of 1.98 nM. The Activity result in the test listed under Xenopus laevis [2] was “Agonist”.
Compound `COc1ccc2[nH]c3c(c2c1)CC(NC(C)=O)CC3` (stereo not given) yielded a Ki on Melatonin receptor of 219 nM. Also, the Activity result in the test filed under Xenopus laevis [2] was “Agonist”.
As for `CCCC(=O)NC1CCCc2c1c1ccccc1n2C` (stereo not given), at Melatonin receptor, the Ki stood at 215 nM. The Activity result in the test filed under Xenopus laevis [2] is “Agonist”.
On Melatonin receptor, `Cn1c2c(c3ccccc31)C(NC(=O)C(F)(F)F)CCC2` (stereo not given) gave an inhibition constant Ki of 766 nM. In addition, in the test filed under Xenopus laevis [2], the Activity result was “Agonist”.
Consider `CCCC(=O)NC1CCc2[nH]c3ccc(OC)cc3c2C1` (stereo not given), for which the Ki on Melatonin receptor worked out at 560 nM. The Activity result in the test listed under Xenopus laevis [2] was “Agonist”. The compound further came in with an EC50 in the test filed under Xenopus laevis [3] of 10000 nM.
Compound `O=C(NC1CCc2[nH]c3ccccc3c2C1)C(F)(F)F` (stereo not given) gave an inhibition constant (Ki) on Melatonin receptor of 4630 nM.
`CC(=O)NC1CCc2[nH]c3ccccc3c2C1` (stereo not given): the Ki at Melatonin receptor is reported as 5350 nM.
`CCC(=O)NC1CCc2[nH]c3ccc(OC)cc3c2C1` (stereo not given) showed a Ki at Melatonin receptor of 41 nM.
At Melatonin receptor, `CCCCC(=O)NC1CCCc2c1c1ccccc1n2C` (stereo not given) gave an inhibition constant Ki of more than 10000 nM. Further, the Activity result in the test filed under Xenopus laevis [2] was “Agonist”.
Turning to `COc1ccc2c(c1)c1c(n2C)CCCC1NC(=O)C1CC1` (stereo not given), at Melatonin receptor, the Ki is reported as 30 nM. Besides, the Activity entry in the test filed under Xenopus laevis [2] was “Agonist”.
Take `CCC(=O)NC1CCc2[nH]c3ccccc3c2C1` (stereo not given): at Melatonin receptor, the Ki turned out to be 436 nM. Moreover, the Activity entry in the test filed under Xenopus laevis [4] is “Partial agonist”. The EC50 in the test filed under Xenopus laevis [3] was more than 10000 nM.
The compound `COc1ccc2c(c1)c(CCNC(C)=O)cn2C` gave a Ki on Melatonin receptor of 254 nM.

In general, Ki refers to the equilibrium dissociation constant of an inhibitor or competing ligand from its target. A higher Ki goes with a looser hold on the target. For orientation: EC50 means the concentration that produces a half-maximal response.

For the origin of these results see ChEMBL document CHEMBL1127919 (Bioorg Med Chem Lett, 1994).
